Test results from the NIST ThermoML archive (doi:10.1016/j.jct.2015.06.021).
Several values for one entry are separate records, joined by “and”; a condition that tells them apart may be missing. Equal values may be shown once. ± gives the expanded uncertainty stated by the source.

What was measured:
[1] = Crystal; for vapor or sublimation pressure: Calculated from knudsen effusion weight loss; for Normal melting temperature: DTA
[2] = Molar enthalpy of transition or fusion; settings: Crystal; DSC

c1ccc2cc3ccccc3cc2c1 [anthracene]
[1]
Settings | vapor or sublimation pressure
301.3 K | 1.3e-06 ± 1e-07 kPa
303.3 K | 1.8e-06 ± 2e-07 kPa
303.6 K | 1.7e-06 ± 2e-07 kPa
305.7 K | 2.5e-06 ± 3e-07 kPa
305.9 K | 2.2e-06 ± 2e-07 kPa
307.8 K | 3.2e-06 ± 6e-07 kPa
308.1 K | 3.9e-06 ± 6e-07 kPa
308.2 K | 3.3e-06 ± 3e-07 kPa
310 K | 4.3e-06 ± 4e-07 kPa
310.2 K | 4.2e-06 ± 5e-07 kPa
310.5 K | 4.5e-06 ± 5e-07 kPa
313.3 K | 6.5e-06 ± 6e-07 kPa
314.5 K | 7.3e-06 ± 7e-07 kPa
314.7 K | 7.4e-06 ± 7e-07 kPa
314.9 K | 7.6e-06 ± 8e-07 kPa
317.6 K | 1.05e-05 ± 1e-06 kPa
318.8 K | 1.1e-05 ± 1.1e-06 kPa
319.2 K | 1.28e-05 ± 1.5e-06 kPa
322.3 K | 1.81e-05 ± 1.8e-06 kPa
323.1 K | 2.05e-05 ± 2e-06 kPa and 1.74e-05 ± 1.7e-06 kPa
323.2 K | 2.12e-05 ± 2.1e-06 kPa
323.8 K | 2.09e-05 ± 2e-06 kPa
326.6 K | 2.96e-05 ± 2.9e-06 kPa
328 K | 3.16e-05 ± 3.1e-06 kPa
328.6 K | 3.48e-05 ± 3.5e-06 kPa
331.5 K | 4.92e-05 ± 4.9e-06 kPa
333.1 K | 6.27e-05 ± 6.2e-06 kPa
333.3 K | 6.36e-05 ± 6.2e-06 kPa
333.7 K | 6.31e-05 ± 6.1e-06 kPa
336.3 K | 8.09e-05 ± 7.9e-06 kPa
338.2 K | 8.49e-05 ± 8.3e-06 kPa
338.8 K | 0.0001028 ± 1.2e-05 kPa and 9.99e-05 ± 1.1e-05 kPa
343.1 K | 0.000173 ± 1.8e-05 kPa and 0.0001738 ± 1.8e-05 kPa
343.4 K | 0.0001646 ± 1.7e-05 kPa and 0.0001599 ± 1.8e-05 kPa
348.1 K | 0.0002492 ± 2.5e-05 kPa
348.2 K | 0.0002587 ± 2.6e-05 kPa
353.2 K | 0.0004347 ± 4.3e-05 kPa
363.2 K | 0.001018 ± 0.00012 kPa
373.2 K | 0.002158 ± 0.00026 kPa

Settings | Molar enthalpy of transition or fusion [kcal/mol] | Normal melting temperature [°C]
[1] | – | 217 ± 2
[2] | 6.55 ± 0.932 | –

c1ccc2c(c1)ccc1ccccc12 [phenanthrene]
[1]
Settings | vapor or sublimation pressure [kPa]
296.2 K | 1.61e-05 ± 1.6e-06
297.2 K | 1.86e-05 ± 1.9e-06
298.2 K | 2.1e-05 ± 2.1e-06
299.2 K | 2.43e-05 ± 2.4e-06
300.2 K | 2.7e-05 ± 2.7e-06
301.2 K | 3e-05 ± 3e-06
302.2 K | 3.43e-05 ± 3.4e-06
303.2 K | 3.83e-05 ± 3.8e-06
304.2 K | 4.3e-05 ± 4.3e-06
305.2 K | 4.88e-05 ± 4.9e-06
306.2 K | 5.4e-05 ± 5.4e-06
307.2 K | 6.08e-05 ± 6e-06
308.2 K | 6.73e-05 ± 6.7e-06
309.2 K | 7.49e-05 ± 7.4e-06
310.2 K | 8.41e-05 ± 8.3e-06
311.2 K | 9.35e-05 ± 9.3e-06
312.2 K | 0.0001041 ± 1e-05
313.2 K | 0.0001151 ± 1.1e-05

Settings | Molar enthalpy of transition or fusion [kcal/mol] | Normal melting temperature [°C]
[1] | – | 99 ± 2
[2] | 3.62 ± 0.526 | –
